{"source": "patent US11919965B2", "about": "“Methods of treating multiple myeloma with bispecific anti-BCMA x anti-CD3 antibodies” (Regeneron Pharmaceuticals, Inc., priority 2019, dated 2024)", "key": {"[1]": {"test_system": "Jurkat/NFATLuc.3C7 reporter cells with HEK293 cells (BCMA negative)", "assay": "Jurkat/NFATLuc reporter bioassay (T-cell activation)", "type": "cell-based, human", "description": "(§1) Activity of the anti-BCMA×anti-CD3 bispecific antibodies were assessed in a Jurkat/NFATLuc reporter bioassay utilizing several cell lines with varying levels of BCMA surface expression. The Jurkat cells were engineered to express an NFAT-luciferase reporter (Jurkat/NFATLuc.3C7), and 50,000 Jurkat reporter cells were combined with 50,000 BCMA positive (Daudi, MM1-S, NCI-H929, OPM-2, RPMI-8226, MOLP-8, or Raji) or BCMA negative (HEK293) cells in Thermo Nunclon delta 96 well white microwell plates (Thermo Scientific, Cat #136102) in 50 ul of assay media (RPMI media with 10% FBS and 1% P/S/G). Three-fold serial dilutions of the BCMA×CD3 bispecific antibodies (mAb25441D or mAb25442D), or a bivalent anti-BCMA antibody (mAb21581) were immediately added in 50 uL of assay buffer. The plates were gently agitated and incubated in a 37° C., 5% CO2 incubator for 4-6 hours. NFAT-Luciferase activity was determined using Promega One-Glo (Cat #E6130) and a Perkin Elmer Envision plate reader. RLU were plotted in GraphPad Prism using a four-parameter logistic equation over a 12-point response curve to calculate EC50 values. The no antibody treatment condition for each dose-response curve is also included in the analysis as a continuation of the three-fold serial dilution and is represented as the lowest dose. The signal to noise (S:N) is determined by taking the ratio of the highest RLU on the curve to the lowest."}, "[2]": {"test_system": "Jurkat/NFATLuc.3C7 reporter cells with MM1-S cells (BCMA positive)", "assay": "Jurkat/NFATLuc reporter bioassay (T-cell activation)", "type": "cell-based, human", "description": "as §1"}, "[3]": {"test_system": "Jurkat/NFATLuc.3C7 reporter cells with RPMI-8226 cells (BCMA positive)", "assay": "Jurkat/NFATLuc reporter bioassay (T-cell activation)", "type": "cell-based, human", "description": "as §1"}, "[4]": {"test_system": "Jurkat/NFATLuc.3C7 reporter cells with Raji cells (BCMA positive)", "assay": "Jurkat/NFATLuc reporter bioassay (T-cell activation)", "type": "cell-based, human", "description": "as §1"}, "[5]": {"test_system": "BCMA-expressing NCI-H929 multiple myeloma tumors", "assay": "Xenogenic tumor model, NCI-H929 + human PBMC s.c. in NSG mice, treatment from implantation (Example 10)", "type": "in vivo, mouse", "details": "4 mg/kg", "description": "To determine the in vivo efficacy of BCMA×CD3 bispecific antibodies (Abs), a xenogenic tumor study was performed. Immunodeficient NOD.Cg-Prkdc^scidII2rgtm1Wjl/SzJ (NSG) mice were subcutaneously implanted with a mixture of 10×10^6 BCMA-expressing NCI-H929 multiple myeloma cells and 0.5×10^6 human peripheral blood mononuclear cells (PBMC) isolated from a normal donor. […] The mice were administered Abs twice per week for a total of three weeks, and tumor growth was assessed over 40 days. While BCMA^+ tumors grew similarly in the vehicle-, isotype control-, and CD3-binding control-treated mice, both BCMA×CD3 Abs that were tested prevented the growth of tumors in vivo.\nImplantation and measurement of syngeneic tumors: NSG mice were subcutaneously implanted with a mixture of 10×10^6 BCMA-expressing NCI-H929 multiple myeloma cells and 0.5×10^6 PBMC derived from a normal donor. […] The mice were administered Abs twice per week for a total of three weeks. Tumor growth was measured with calipers twice per week for the duration of the experiment. Mice were sacrificed 40 days after tumor implantation.\nCalculation of syngeneic tumor growth and inhibition: In order to determine tumor volume by external caliper, the greatest longitudinal diameter (length in mm) and the greatest transverse diameter (width in mm) were determined. Tumor volumes based on caliper measurements were calculated by the formula: Volume (mm^3)=(length× width^2)/2."}, "[6]": {"test_system": "BCMA-expressing NCI-H929 multiple myeloma tumors", "assay": "Xenogenic tumor model, NCI-H929 + human PBMC s.c. in NSG mice, dose response, treatment from implantation (Example 11)", "type": "in vivo, mouse", "description": "To determine the in vivo efficacy of anti-BCMA×anti-CD3 bispecific antibodies (Abs), a xenogenic tumor study was performed. Immunodeficient NOD.Cg-Prkdc^ScidII2rg^tm1Wjl/SzJ (NSG) mice were subcutaneously implanted with a mixture of 10×10^6 BCMA-expressing NCI-H929 human multiple myeloma tumor cells and 0.5×10^6 human peripheral blood mononuclear cells (PBMC) isolated from a normal, healthy donor. […] The mice were administered these Abs twice per week for a total of seven doses, and tumor growth was assessed over 60 days. While BCMA+NCI-H929 tumors grew similarly in the vehicle- and CD3-binding control-treated mice, both anti-BCMA×anti-CD3 Abs that were tested prevented the growth of tumors in a dose-dependent manner in vivo.\nImplantation and measurement of xenogenic tumors: NSG mice were subcutaneously implanted with a mixture of 10×10^6 BCMA-expressing NCI-H929 multiple myeloma cells and 0.5×10^6 PBMC derived from a normal, healthy donor. […] The mice were administered Abs twice per week for a total of seven doses. Tumor growth was measured with calipers twice per week for the duration of the experiment.\nCalculation of xenogenic tumor growth and inhibition: In order to determine tumor volume by external caliper, the greatest longitudinal diameter (length in mm) and the greatest transverse diameter (width in mm) were determined. Tumor volumes based on caliper measurements were calculated by the formula: Volume (mm^3)=(length× width^2)/2."}}, "data": [{"substance": "REGN5459: anti-BCMA×anti-CD3 bispecific antibody: mAb21581 BCMA heavy chain, mAb7221G20 CD3 heavy chain and common light chain; SEQ ID NOs 126, 128, 129", "values": [{"measurement": "S:N (highest RLU to lowest)", "setting": "[1]", "value": 1}, {"measurement": "S:N (highest RLU to lowest)", "setting": "[2]", "value": 120}, {"measurement": "S:N (highest RLU to lowest)", "setting": "[3]", "value": 42}, {"measurement": "S:N (highest RLU to lowest)", "setting": "[4]", "value": 78}, {"measurement": "Average Tumor Size (mm3) ± SEM on Day 4", "setting": "[5]", "value": "26.5 ± 6.2", "unit": "mm3"}, {"measurement": "Average Tumor Size (mm3) ± SEM on Day 7", "setting": "[5]", "value": "0 ± 0", "unit": "mm3"}, {"measurement": "Average Tumor Size (mm3) ± SEM on Day 11", "setting": "[5]", "value": "0 ± 0", "unit": "mm3"}, {"measurement": "Average Tumor Size (mm3) ± SEM on Day 14", "setting": "[5]", "value": "0 ± 0", "unit": "mm3"}, {"measurement": "Average Tumor Size (mm3) ± SEM on Day 18", "setting": "[5]", "value": "0 ± 0", "unit": "mm3"}, {"measurement": "Average Tumor Size (mm3) ± SEM on Day 21", "setting": "[5]", "value": "0 ± 0", "unit": "mm3"}, {"measurement": "Average Tumor Size (mm3) ± SEM on Day 28", "setting": "[5]", "value": "0 ± 0", "unit": "mm3"}, {"measurement": "Average Tumor Size (mm3) ± SEM on Day 40", "setting": "[5]", "value": "0 ± 0", "unit": "mm3"}, {"measurement": "Average Tumor Size (mm3) ± SEM on Day 4", "setting": "[6]; 0.04 mg/kg", "value": "33.0 ± 4.4", "unit": "mm3"}, {"measurement": "Average Tumor Size (mm3) ± SEM on Day 7", "setting": "[6]; 0.04 mg/kg", "value": "8.4 ± 4.0", "unit": "mm3"}, {"measurement": "Average Tumor Size (mm3) ± SEM on Day 12", "setting": "[6]; 0.04 mg/kg", "value": "0 ± 0", "unit": "mm3"}, {"measurement": "Average Tumor Size (mm3) ± SEM on Day 19", "setting": "[6]; 0.04 mg/kg", "value": "23.1± 23.1", "unit": "mm3"}, {"measurement": "Average Tumor Size (mm3) ± SEM on Day 22", "setting": "[6]; 0.04 mg/kg", "value": "69.5 ± 69.5", "unit": "mm3"}, {"measurement": "Average Tumor Size (mm3) ± SEM on Day 26", "setting": "[6]; 0.04 mg/kg", "value": "156.7 ± 156.7", "unit": "mm3"}, {"measurement": "Average Tumor Size (mm3) ± SEM on Day 29", "setting": "[6]; 0.04 mg/kg", "value": "226.6 ± 226.6", "unit": "mm3"}, {"measurement": "Average Tumor Size (mm3) ± SEM on Day 4", "setting": "[6]; 0.4 mg/kg", "value": "19.6 ± 4.4", "unit": "mm3"}, {"measurement": "Average Tumor Size (mm3) ± SEM on Day 12", "setting": "[6]; 0.4 mg/kg", "value": "0 ± 0", "unit": "mm3"}, {"measurement": "Average Tumor Size (mm3) ± SEM on Day 15", "setting": "[6]; 0.4 mg/kg", "value": "0 ± 0", "unit": "mm3"}, {"measurement": "Average Tumor Size (mm3) ± SEM on Day 19", "setting": "[6]; 0.4 mg/kg", "value": "0 ± 0", "unit": "mm3"}, {"measurement": "Average Tumor Size (mm3) ± SEM on Day 22", "setting": "[6]; 0.4 mg/kg", "value": "0 ± 0", "unit": "mm3"}, {"measurement": "Average Tumor Size (mm3) ± SEM on Day 26", "setting": "[6]; 0.4 mg/kg", "value": "0 ± 0", "unit": "mm3"}, {"measurement": "Average Tumor Size (mm3) ± SEM on Day 29", "setting": "[6]; 0.4 mg/kg", "value": "0 ± 0", "unit": "mm3"}, {"measurement": "Average Tumor Size (mm3) ± SEM on Day 34", "setting": "[6]; 0.4 mg/kg", "value": "0 ± 0", "unit": "mm3"}, {"measurement": "Average Tumor Size (mm3) ± SEM on Day 39", "setting": "[6]; 0.4 mg/kg", "value": "0 ± 0", "unit": "mm3"}, {"measurement": "Average Tumor Size (mm3) ± SEM on Day 42", "setting": "[6]; 0.4 mg/kg", "value": "0 ± 0", "unit": "mm3"}, {"measurement": "Average Tumor Size (mm3) ± SEM on Day 46", "setting": "[6]; 0.4 mg/kg", "value": "0 ± 0", "unit": "mm3"}, {"measurement": "Average Tumor Size (mm3) ± SEM on Day 55", "setting": "[6]; 0.4 mg/kg", "value": "0 ± 0", "unit": "mm3"}, {"measurement": "Average Tumor Size (mm3) ± SEM on Day 60", "setting": "[6]; 0.4 mg/kg", "value": "0 ± 0", "unit": "mm3"}, {"measurement": "Average Tumor Size (mm3) ± SEM on Day 4", "setting": "[6]; 4 mg/kg", "value": "21.8 ± 3.4", "unit": "mm3"}, {"measurement": "Average Tumor Size (mm3) ± SEM on Day 7", "setting": "[6]; 4 mg/kg", "value": "8.0 ± 4.3", "unit": "mm3"}, {"measurement": "Average Tumor Size (mm3) ± SEM on Day 12", "setting": "[6]; 4 mg/kg", "value": "1.7 ± 1.7", "unit": "mm3"}, {"measurement": "Average Tumor Size (mm3) ± SEM on Day 15", "setting": "[6]; 4 mg/kg", "value": "0 ± 0", "unit": "mm3"}, {"measurement": "Average Tumor Size (mm3) ± SEM on Day 19", "setting": "[6]; 4 mg/kg", "value": "0 ± 0", "unit": "mm3"}, {"measurement": "Average Tumor Size (mm3) ± SEM on Day 22", "setting": "[6]; 4 mg/kg", "value": "0 ± 0", "unit": "mm3"}, {"measurement": "Average Tumor Size (mm3) ± SEM on Day 26", "setting": "[6]; 4 mg/kg", "value": "0 ± 0", "unit": "mm3"}, {"measurement": "Average Tumor Size (mm3) ± SEM on Day 29", "setting": "[6]; 4 mg/kg", "value": "0 ± 0", "unit": "mm3"}, {"measurement": "Average Tumor Size (mm3) ± SEM on Day 34", "setting": "[6]; 4 mg/kg", "value": "0 ± 0", "unit": "mm3"}, {"measurement": "Average Tumor Size (mm3) ± SEM on Day 39", "setting": "[6]; 4 mg/kg", "value": "0 ± 0", "unit": "mm3"}, {"measurement": "Average Tumor Size (mm3) ± SEM on Day 42", "setting": "[6]; 4 mg/kg", "value": "0 ± 0", "unit": "mm3"}, {"measurement": "Average Tumor Size (mm3) ± SEM on Day 46", "setting": "[6]; 4 mg/kg", "value": "0 ± 0", "unit": "mm3"}, {"measurement": "Average Tumor Size (mm3) ± SEM on Day 55", "setting": "[6]; 4 mg/kg", "value": "0 ± 0", "unit": "mm3"}, {"measurement": "Average Tumor Size (mm3) ± SEM on Day 60", "setting": "[6]; 4 mg/kg", "value": "0 ± 0", "unit": "mm3"}]}]}
